Measured values as given in US11267825B2 (AICURIS GMBH & CO. KG, priority 2017, dated 2022).
Like-named read-outs stand apart in the source and are kept apart here.

Columns and labels:
HBV = test: Determination of HBV DNA from the supernatants of HepAD38 cells (anti-HBV activity); assay type: cell-based, hepatitis B virus; details: Hepatitis B virus, read-out: Cell Activity (EC50)
How it was run: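 EC50 values were obtained by non-linear regression of HBV DNA copy numbers measured by qPCR against pCH-9/3091 plasmid standards. The DNA came from filtered supernatants collected on day 6. Before that, tetracycline-withdrawn HepAD38 cells had been exposed to serial half-log compound dilutions, with tetracycline-treated cells as the non-producing control.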

HBV core protein = HBV core protein (UniProt P03146); assay type: biochemical; details: read-out: Assembly Activity (IC50); BODIPY-FL labelled core protein, assembly started with NaCl, read after 6 min
Sequence of HBV core protein (P03146 whole entry, looked up, the tested form may be a part): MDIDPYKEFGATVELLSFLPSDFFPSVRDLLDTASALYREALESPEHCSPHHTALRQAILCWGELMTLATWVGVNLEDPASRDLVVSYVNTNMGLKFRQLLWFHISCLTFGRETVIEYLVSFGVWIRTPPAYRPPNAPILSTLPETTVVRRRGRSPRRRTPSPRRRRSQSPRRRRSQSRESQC
How it was run: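 Compounds tested at 8 concentrations in 0.5-log steps from 100, 31.6 or 10 μM against 1.0–2.0 μM BODIPY-FL-labelled Cys150 core dimers (residues 1–149), 50 mM HEPES pH 7.5. NaCl ([…] final) triggered assembly; quenching read at 6 min, 477/525 nm, with 2.5 M and 0 M NaCl as controls; EC50 by nonlinear fit.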

[1] = 144 h, HBV DNA in HepAD38 supernatant at day 6

SMILES	EC50 (HBV; [1]) [nM]	IC50 (HBV core protein) [µM]	EC50 (HBV; HePAD38, 144 h) [nM]
O=C(CC(F)(F)F)Nc1nc2c(s1)CN(C(=O)c1cc3ccccc3[nH]1)CC2 [Example 61, 3,3,3-trifluoro-N-[5-(1H-indole-2-carbonyl)-4H,5H,6H,7H-[1,3]thiazolo[5,4-c]pyridin-2-yl]propanamide]	< 1000	5 to 10	–
CC(C)(CO)CNc1nc2c(s1)CN(C(=O)c1cc3ccccc3[nH]1)CC2 [Example 221, 3-{[5-(1H-indole-2-carbonyl)-4H,5H,6H,7H-[1,3]thiazolo[5,4-c]pyridin-2-yl]amino}-2,2-dimethylpropan-1-ol]	< 1000	< 5	–
CC1(C)CC1C(=O)Nc1nc2c(s1)CN(C(=O)c1cc3ccccc3[nH]1)CC2 (stereo not drawn) [Example 267, N-[5-(1H-indole-2-carbonyl)-4H,5H,6H,7H-[1,3]thiazolo[5,4-c]pyridin-2-yl]-2,2-dimethylcyclopropane-1-carboxamide]	< 1000	5 to 10	–
CC(F)(F)c1cccc2[nH]c(C(=O)N3CCc4nc(NCC5(O)CCC5)sc4C3)cc12 [Example 372, 1-[({5-[4-(1,1-difluoroethyl)-1H-indole-2-carbonyl]-4H,5H,6H,7H-[1,3]thiazolo[5,4-c]pyridin-2-yl}amino)methyl]cyclobutan-1-ol]	1000 to 10000	< 5	–
O=C(c1cc2ccccc2[nH]1)N1CCc2nc(NC3CCOC3)sc2C1 (stereo not drawn) [Example 180, 5-(1H-indole-2-carbonyl)-N-(oxolan-3-yl)-4H,5H,6H,7H-[1,3]thiazolo[5,4-c]pyridin-2-amine]	< 1000	< 5	–
CC(C)OC(=O)[C@H](C)NP(=O)(OCC1(CNc2nc3c(s2)CN(C(=O)c2cc4c(F)cc(F)cc4[nH]2)CC3)CC1)Oc1ccccc1 (stereo partly drawn) [Example 37, Propan-2-yl (2S)-2-[({[1-({[5-(4,6-difluoro-1H-indole-2-carbonyl)-4H,5H,6H,7H-[1,3]thiazolo[5,4-c]pyridin-2-yl]amino}methyl)cyclopropyl]methoxy}(phenoxy)phosphoryl)amino]propanoate]	–	< 100	< 1000
Cc1nc2c(s1)CN(C(=O)c1cc3cc(F)c(F)cc3[nH]1)CC2 [Example 164]	< 1000	< 5	–
O=C(c1cc2c(Cl)cc(F)cc2[nH]1)N1CCc2nc(NCC3(O)CCC3)sc2C1 [Example 313, 1-({[5-(4-chloro-6-fluoro-1H-indole-2-carbonyl)-4H,5H,6H,7H-[1,3]thiazolo[5,4-c]pyridin-2-yl]amino}methyl)cyclobutan-1-ol]	< 1000	< 5	–
CC(O)CNc1nc2c(s1)CN(C(=O)c1cc3ccccc3[nH]1)CC2 (stereo in doubt) [Example 131, (2S)-1-{[5-(1H-indole-2-carbonyl)-4H,5H,6H,7H-[1,3]thiazolo[5,4-c]pyridin-2-yl]amino}propan-2-ol]	< 1000	< 5	–
Nc1nc2c(s1)CN(C(=O)c1cc3cc(F)c(F)cc3[nH]1)CC2 [Example 159, 5-(5,6-difluoro-1H-indole-2-carbonyl)-4H,5H,6H,7H-[1,3]thiazolo[5,4-c]pyridin-2-amine]	< 1000	< 5	–
O=C(c1cc2c(F)cc(F)cc2[nH]1)N1CCc2nc(N[C@H]3CC[C@@H](O)CC3)sc2C1 [Example 344, (1s,4s)-4-{[5-(4,6-difluoro-1H-indole-2-carbonyl)-4H,5H,6H,7H-[1,3]thiazolo[5,4-c]pyridin-2-yl]amino}cyclohexan-1-ol]	< 1000	5 to 10	–
CC(F)(F)c1cc(F)cc2[nH]c(C(=O)N3CCc4nc(N)sc4C3)cc12 [Example 290, 5-[4-(1,1-difluoroethyl)-6-fluoro-1H-indole-2-carbonyl]-4H,5H,6H,7H-[1,3]thiazolo[5,4-c]pyridin-2-amine]	< 1000	< 5	–
CC(Nc1nc2c(s1)CN(C(=O)c1cc3ccccc3[nH]1)CC2)C(F)(F)F (stereo not drawn) [Example 22, 5-(1H-indole-2-carbonyl)-N-(1,1,1-trifluoropropan-2-yl)-4H,5H,6H,7H-[1,3]thiazolo[5,4-c]pyridin-2-amine]	< 1000	< 100	–
Nc1nc2c(s1)CN(C(=O)c1cc3c(Br)ccc(F)c3[nH]1)CC2 [Example 90, 5-(4-bromo-7-fluoro-1H-indole-2-carbonyl)-4H,5H,6H,7H-[1,3]thiazolo[5,4-c]pyridin-2-amine]	< 1000	< 5	–
CCc1cc(F)cc2[nH]c(C(=O)N3CCc4nc(NCC5(CO)CC5)sc4C3)cc12 [Example 248, [1-({[5-(4-ethyl-6-fluoro-1H-indole-2-carbonyl)-4H,5H,6H,7H-[1,3]thiazolo[5,4-c]pyridin-2-yl]amino}methyl)cyclopropyl]methanol]	< 1000	< 5	–
Cc1nc2c(s1)CN(C(=O)c1cc3c(Cl)ccc(Cl)c3[nH]1)CC2 [Example 186, 4,7-dichloro-2-{2-methyl-4H,5H,6H,7H-[1,3]thiazolo[5,4-c]pyridine-5-carbonyl}-1H-indole]	< 100000	< 100	–
Cc1nc2c(s1)CN(C(=O)c1cc3cccc(OC(F)(F)F)c3[nH]1)CC2 [Example 183, 2-{2-methyl-4H,5H,6H,7H-[1,3]thiazolo[5,4-c]pyridine-5-carbonyl}-7-(trifluoromethoxy)-1H-indole]	< 100000	< 100	–
O=C(c1cc2ccccc2[nH]1)N1CCc2nc(NC3(CO)CC3)sc2C1 [Example 230, (1-{[5-(1H-indole-2-carbonyl)-4H,5H,6H,7H-[1,3]thiazolo[5,4-c]pyridin-2-yl]amino}cyclopropyl)methanol]	< 1000	< 5	–
N#Cc1cccc2[nH]c(C(=O)N3CCc4nc(NCC5CCOC5)sc4C3)cc12 (stereo not drawn) [Example 104, 5-(4-cyano-1H-indole-2-carbonyl)-N-[(oxolan-3-yl)methyl]-4H,5H,6H,7H-[1,3]thiazolo[5,4-c]pyridin-2-amine]	1000 to 10000	5 to 10	–
O=C(c1cc2c(Cl)ccc(F)c2[nH]1)N1CCc2nc(NCC3CCOC3)sc2C1 (stereo not drawn) [Example 116, 5-(4-chloro-7-fluoro-1H-indole-2-carbonyl)-N-[(oxolan-3-yl)methyl]-4H,5H,6H,7H-[1,3]thiazolo[5,4-c]pyridin-2-amine]	< 1000	5 to 10	–
N#Cc1cccc2[nH]c(C(=O)N3CCc4nc(N)sc4C3)cc12 [Example 83, 5-(4-cyano-1H-indole-2-carbonyl)-4H,5H,6H,7H-[1,3]thiazolo[5,4-c]pyridin-2-amine]	1000 to 10000	< 5	–
CN1CCC(C(=O)Nc2nc3c(s2)CN(C(=O)c2cc4ccccc4[nH]2)CC3)CC1 [Example 409, N-[5-(1H-indole-2-carbonyl)-4H,5H,6H,7H-[1,3]thiazolo[5,4-c]pyridin-2-yl]-1-methylpiperidine-4-carboxamide]	< 1000	< 5	–
Nc1nc2c(s1)CN(C(=O)c1cc3cc(Cl)c(Cl)cc3[nH]1)CC2 [Example 135, 5-(5,6-dichloro-1H-indole-2-carbonyl)-4H,5H,6H,7H-[1,3]thiazolo[5,4-c]pyridin-2-amine]	1000 to 10000	5 to 10	–
CC(CO)CNc1nc2c(s1)CN(C(=O)c1cc3ccccc3[nH]1)CC2 (stereo not drawn) [Example 217, 3-{[5-(1H-indole-2-carbonyl)-4H,5H,6H,7H-[1,3]thiazolo[5,4-c]pyridin-2-yl]amino}-2-methylpropan-1-ol]	< 1000	< 5	–
